Laboratory results taken from ChEMBL document CHEMBL4622864, “Synthesis and biological evaluation of quinoxaline derivatives as specific c-Met kinase inhibitors” (Bioorg Med Chem Lett, 2020).
pIC50: −log10 of the molar value. Each block holds one molecule with its values, some of them ahead of it.

Legend:
MKN-45 [1] = test: Antiproliferative activity against human MKN45 cells overexpressing c-MET assessed as reduction in cell proliferation; assay type: functional, cell-based
MKN-45 [2] = test: Antitumor activity against human MKN45 cells xenografted in nude mouse assessed as tumor growth inhibition at 20 mg/kg, po administered once daily for 14 days relative to control; assay type: functional; settings: MKN-45, po, 336 h, read-out: TGI
[3] = biological target: T1, Hepatocyte growth factor receptor (Homo sapiens, UniProt P08581); test: Inhibition of c-Met (unknown origin) by ADP-Glo kinase assay
T1 sequence (P08581 whole entry): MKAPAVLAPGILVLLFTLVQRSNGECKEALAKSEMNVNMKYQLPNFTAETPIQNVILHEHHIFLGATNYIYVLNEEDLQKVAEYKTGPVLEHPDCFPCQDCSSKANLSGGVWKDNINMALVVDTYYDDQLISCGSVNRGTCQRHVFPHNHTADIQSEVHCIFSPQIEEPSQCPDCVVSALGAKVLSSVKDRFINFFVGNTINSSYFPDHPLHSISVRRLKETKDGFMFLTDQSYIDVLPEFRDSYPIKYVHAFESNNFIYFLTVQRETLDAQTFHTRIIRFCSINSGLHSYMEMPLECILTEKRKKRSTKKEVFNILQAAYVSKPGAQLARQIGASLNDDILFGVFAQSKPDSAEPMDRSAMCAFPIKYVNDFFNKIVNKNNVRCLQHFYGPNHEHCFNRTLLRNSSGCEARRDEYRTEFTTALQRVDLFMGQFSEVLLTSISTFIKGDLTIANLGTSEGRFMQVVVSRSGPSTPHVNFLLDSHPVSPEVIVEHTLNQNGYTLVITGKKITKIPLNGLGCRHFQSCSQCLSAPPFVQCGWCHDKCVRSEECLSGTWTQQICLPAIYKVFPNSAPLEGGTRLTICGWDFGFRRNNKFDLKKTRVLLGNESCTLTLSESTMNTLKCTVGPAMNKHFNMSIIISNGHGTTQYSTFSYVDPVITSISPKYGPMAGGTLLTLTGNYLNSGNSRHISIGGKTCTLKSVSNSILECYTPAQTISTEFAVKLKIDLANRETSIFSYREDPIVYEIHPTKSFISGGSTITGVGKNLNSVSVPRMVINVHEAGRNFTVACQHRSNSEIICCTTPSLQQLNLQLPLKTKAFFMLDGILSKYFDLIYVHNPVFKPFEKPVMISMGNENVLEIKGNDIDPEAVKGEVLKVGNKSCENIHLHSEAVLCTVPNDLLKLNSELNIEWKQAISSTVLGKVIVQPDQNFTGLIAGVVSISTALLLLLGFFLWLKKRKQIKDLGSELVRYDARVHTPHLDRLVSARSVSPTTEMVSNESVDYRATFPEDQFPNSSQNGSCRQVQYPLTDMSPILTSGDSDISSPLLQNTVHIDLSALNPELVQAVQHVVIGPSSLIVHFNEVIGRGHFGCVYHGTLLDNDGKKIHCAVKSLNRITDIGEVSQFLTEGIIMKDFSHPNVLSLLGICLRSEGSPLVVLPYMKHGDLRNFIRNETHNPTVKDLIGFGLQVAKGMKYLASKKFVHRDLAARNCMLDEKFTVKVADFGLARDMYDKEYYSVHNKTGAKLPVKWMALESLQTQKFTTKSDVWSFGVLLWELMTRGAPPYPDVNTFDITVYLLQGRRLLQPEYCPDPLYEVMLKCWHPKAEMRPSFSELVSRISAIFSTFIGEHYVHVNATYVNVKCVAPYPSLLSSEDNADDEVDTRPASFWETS

[4] = tested on: Tyrosine-protein kinase ABL1 (Homo sapiens), P00519 [T315I]; test: Inhibition of ABL T315I mutant (unknown origin) 10 nM relative to control
[5] = Metabolic stability in mouse microsomes assessed as parent compound remaining measured after 30 mins; assay type: ADME, Microsome; settings: read-out: Stability
[6] = biological target: Macrophage colony-stimulating factor 1 receptor (Homo sapiens) (UniProt P07333); test: Inhibition of CSF1R (unknown origin) at 10 nM relative to control
Chain of Macrophage colony-stimulating factor 1 receptor (Homo sapiens) (P07333 whole entry): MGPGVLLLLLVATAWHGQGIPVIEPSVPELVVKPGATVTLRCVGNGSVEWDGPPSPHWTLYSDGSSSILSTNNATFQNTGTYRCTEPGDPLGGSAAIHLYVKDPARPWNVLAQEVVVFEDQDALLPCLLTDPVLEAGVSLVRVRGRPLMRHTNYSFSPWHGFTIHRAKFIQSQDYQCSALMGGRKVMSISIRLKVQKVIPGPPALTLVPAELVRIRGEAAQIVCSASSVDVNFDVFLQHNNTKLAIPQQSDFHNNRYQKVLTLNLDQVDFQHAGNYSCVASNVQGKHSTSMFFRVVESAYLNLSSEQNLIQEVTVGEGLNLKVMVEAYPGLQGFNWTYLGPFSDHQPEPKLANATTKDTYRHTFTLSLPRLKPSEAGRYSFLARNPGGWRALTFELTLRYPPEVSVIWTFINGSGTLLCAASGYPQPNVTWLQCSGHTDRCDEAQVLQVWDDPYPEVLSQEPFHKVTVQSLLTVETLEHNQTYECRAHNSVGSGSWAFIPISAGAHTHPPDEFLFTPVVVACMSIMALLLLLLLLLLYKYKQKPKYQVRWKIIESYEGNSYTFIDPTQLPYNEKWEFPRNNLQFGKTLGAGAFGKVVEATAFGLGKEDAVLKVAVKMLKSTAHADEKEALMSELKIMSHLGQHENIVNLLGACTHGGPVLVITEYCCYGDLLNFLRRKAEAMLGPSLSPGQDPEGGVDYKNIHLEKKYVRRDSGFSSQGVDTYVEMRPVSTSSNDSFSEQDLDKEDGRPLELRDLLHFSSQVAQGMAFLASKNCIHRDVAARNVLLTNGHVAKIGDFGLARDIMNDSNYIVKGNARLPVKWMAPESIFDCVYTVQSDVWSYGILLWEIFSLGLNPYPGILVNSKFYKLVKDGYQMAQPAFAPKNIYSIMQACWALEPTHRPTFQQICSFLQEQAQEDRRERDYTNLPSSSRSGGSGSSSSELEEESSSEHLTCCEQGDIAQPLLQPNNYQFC

[7] = biological target: Proto-oncogene tyrosine-protein kinase receptor Ret (Homo sapiens) (UniProt P07949); test: Inhibition of RET (unknown origin) at 100 nM relative to control
[8] = biological target: Tyrosine-protein kinase receptor UFO (Homo sapiens) (UniProt P30530); test: Inhibition of AXL (unknown origin) at 10 nM relative to control
Chain of Tyrosine-protein kinase receptor UFO (Homo sapiens) (P30530 whole entry): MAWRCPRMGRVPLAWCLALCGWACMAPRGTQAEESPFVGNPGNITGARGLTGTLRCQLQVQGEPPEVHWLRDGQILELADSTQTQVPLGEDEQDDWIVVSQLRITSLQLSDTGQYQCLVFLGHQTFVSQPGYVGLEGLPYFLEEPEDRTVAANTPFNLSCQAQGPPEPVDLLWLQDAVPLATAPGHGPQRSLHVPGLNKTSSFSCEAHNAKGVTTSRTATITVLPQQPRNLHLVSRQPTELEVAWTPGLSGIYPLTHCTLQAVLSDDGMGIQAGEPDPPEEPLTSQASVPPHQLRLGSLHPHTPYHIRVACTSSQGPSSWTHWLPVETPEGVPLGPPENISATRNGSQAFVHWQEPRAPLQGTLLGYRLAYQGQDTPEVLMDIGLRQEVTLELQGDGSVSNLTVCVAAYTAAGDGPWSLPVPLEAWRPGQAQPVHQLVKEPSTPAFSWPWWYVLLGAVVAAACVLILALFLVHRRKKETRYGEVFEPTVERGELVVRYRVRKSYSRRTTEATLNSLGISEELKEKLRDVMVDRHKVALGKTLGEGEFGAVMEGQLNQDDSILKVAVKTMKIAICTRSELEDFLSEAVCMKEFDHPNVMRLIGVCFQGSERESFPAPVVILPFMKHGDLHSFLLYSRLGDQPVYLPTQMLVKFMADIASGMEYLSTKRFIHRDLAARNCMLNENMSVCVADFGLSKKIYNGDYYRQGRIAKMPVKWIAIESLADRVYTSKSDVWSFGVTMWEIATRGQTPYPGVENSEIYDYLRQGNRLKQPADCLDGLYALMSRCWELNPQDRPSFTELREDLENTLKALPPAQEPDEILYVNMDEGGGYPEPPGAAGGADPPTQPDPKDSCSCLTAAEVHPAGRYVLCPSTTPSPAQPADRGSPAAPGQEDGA

[9] = biological target: Tyrosine-protein kinase receptor UFO (Homo sapiens) (UniProt P30530); test: Inhibition of AXL (unknown origin) at 100 nM relative to control
[10] = biological target: Fibroblast growth factor receptor 1 (Homo sapiens) (UniProt P11362); test: Inhibition of FGFR1 (unknown origin) at 100 nM relative to control
[11] = biological target: Platelet-derived growth factor receptor alpha (Homo sapiens) (UniProt P16234); test: Inhibition of PDGFRalpha (unknown origin) at 10 nM relative to control
[12] = biological target: Angiopoietin-1 receptor (Homo sapiens) (UniProt Q02763); test: Inhibition of human TIE2 at 100 nM relative to control
Chain of Angiopoietin-1 receptor (Homo sapiens) (Q02763 whole entry): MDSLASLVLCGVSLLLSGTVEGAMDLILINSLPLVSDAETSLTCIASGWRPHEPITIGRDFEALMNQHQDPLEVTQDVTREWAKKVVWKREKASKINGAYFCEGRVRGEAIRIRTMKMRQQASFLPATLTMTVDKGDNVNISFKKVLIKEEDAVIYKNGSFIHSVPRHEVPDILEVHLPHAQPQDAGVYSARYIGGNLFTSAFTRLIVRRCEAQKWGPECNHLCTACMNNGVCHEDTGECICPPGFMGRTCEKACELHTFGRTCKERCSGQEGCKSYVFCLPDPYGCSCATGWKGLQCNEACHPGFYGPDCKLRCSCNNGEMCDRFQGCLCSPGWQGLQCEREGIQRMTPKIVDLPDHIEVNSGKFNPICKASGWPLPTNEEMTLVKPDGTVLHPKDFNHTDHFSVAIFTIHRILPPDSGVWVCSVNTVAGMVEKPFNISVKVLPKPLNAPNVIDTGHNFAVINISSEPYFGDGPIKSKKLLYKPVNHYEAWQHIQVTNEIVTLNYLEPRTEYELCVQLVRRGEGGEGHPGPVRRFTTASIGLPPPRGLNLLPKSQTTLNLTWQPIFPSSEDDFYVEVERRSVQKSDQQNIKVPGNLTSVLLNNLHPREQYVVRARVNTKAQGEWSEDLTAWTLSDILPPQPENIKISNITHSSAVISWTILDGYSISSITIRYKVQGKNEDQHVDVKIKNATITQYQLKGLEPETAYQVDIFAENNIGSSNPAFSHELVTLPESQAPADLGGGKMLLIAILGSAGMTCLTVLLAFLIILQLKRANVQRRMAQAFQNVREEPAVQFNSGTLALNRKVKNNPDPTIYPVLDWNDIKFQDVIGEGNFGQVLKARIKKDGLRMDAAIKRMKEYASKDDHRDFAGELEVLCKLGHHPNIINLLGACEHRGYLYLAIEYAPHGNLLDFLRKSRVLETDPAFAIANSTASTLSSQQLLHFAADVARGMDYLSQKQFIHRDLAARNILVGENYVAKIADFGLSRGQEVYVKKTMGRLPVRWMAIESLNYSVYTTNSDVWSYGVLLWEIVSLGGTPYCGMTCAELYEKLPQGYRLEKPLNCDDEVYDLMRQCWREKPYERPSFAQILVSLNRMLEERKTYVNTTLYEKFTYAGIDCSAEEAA

[13] = biological target: Macrophage-stimulating protein receptor (Homo sapiens) (UniProt Q04912); test: Inhibition of RON (unknown origin) at 100 nM relative to control
[14] = biological target: Vascular endothelial growth factor receptor 3 (Homo sapiens) (UniProt P35916); test: Inhibition of VEGFR3 (unknown origin) at 10 nM relative to control
[15] = biological target: Angiopoietin-1 receptor (Homo sapiens) (UniProt Q02763); test: Inhibition of human TIE2 at 10 nM relative to control
[16] = biological target: Vascular endothelial growth factor receptor 1 (Homo sapiens) (UniProt P17948); test: Inhibition of VEGFR1 (unknown origin) at 100 nM relative to control
[17] = biological target: Macrophage-stimulating protein receptor (Homo sapiens) (UniProt Q04912); test: Inhibition of RON (unknown origin) at 10 nM relative to control
[18] = Metabolic stability in rat microsomes assessed as parent compound remaining measured after 30 mins; assay type: ADME, Microsome; settings: read-out: Stability
[19] = biological target: Mast/stem cell growth factor receptor Kit (Homo sapiens) (UniProt P10721); test: Inhibition of C-kit (unknown origin) at 100 nM relative to control
CYP2C9 = CYP2C9 (Homo sapiens, UniProt P11712); test: Inhibition of CYP2C9 (unknown origin) at 10 uM relative to control; assay type: ADME
CYP3A4 = CYP3A4 (Homo sapiens, UniProt P08684); test: Inhibition of CYP3A4 (unknown origin) at 10 uM relative to control; assay type: ADME
[20] = biological target: Vascular endothelial growth factor receptor 3 (Homo sapiens) (UniProt P35916); test: Inhibition of VEGFR3 (unknown origin) at 100 nM relative to control
[21] = biological target: Platelet-derived growth factor receptor beta (Homo sapiens) (UniProt P09619); test: Inhibition of human PDGFRbeta at 100 nM relative to control
[22] = biological target: Tyrosine-protein kinase Lck (Homo sapiens) (UniProt P06239); test: Inhibition of LCK (unknown origin) at 100 nM relative to control
CYP2C19 = CYP2C19 (Homo sapiens, UniProt P33261); test: Inhibition of CYP2C19 (unknown origin) at 10 uM relative to control; assay type: ADME
[23] = biological target: Proto-oncogene tyrosine-protein kinase Src (Homo sapiens) (UniProt P12931); test: Inhibition of c-SRC (unknown origin) at 10 nM relative to control
Chain of Proto-oncogene tyrosine-protein kinase Src (Homo sapiens) (P12931 2-536 limits assumed): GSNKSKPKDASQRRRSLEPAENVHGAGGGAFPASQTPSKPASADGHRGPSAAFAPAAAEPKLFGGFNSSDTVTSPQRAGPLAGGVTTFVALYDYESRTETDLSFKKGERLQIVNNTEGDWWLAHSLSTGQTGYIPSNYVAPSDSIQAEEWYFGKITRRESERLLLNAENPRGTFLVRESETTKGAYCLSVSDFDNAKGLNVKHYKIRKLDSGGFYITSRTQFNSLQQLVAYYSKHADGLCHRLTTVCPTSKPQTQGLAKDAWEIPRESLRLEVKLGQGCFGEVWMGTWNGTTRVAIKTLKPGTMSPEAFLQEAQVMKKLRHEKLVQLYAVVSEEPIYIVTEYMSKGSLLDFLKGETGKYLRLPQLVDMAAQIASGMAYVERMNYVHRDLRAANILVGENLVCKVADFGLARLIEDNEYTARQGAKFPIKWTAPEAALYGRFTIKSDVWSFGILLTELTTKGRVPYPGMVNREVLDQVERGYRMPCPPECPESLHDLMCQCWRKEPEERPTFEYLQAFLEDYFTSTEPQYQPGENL

MKN-45 [24] = test: Antitumor activity against human MKN45 cells xenografted in po dosed nude mouse assessed as tumor growth inhibition administered once daily for 14 days; assay type: functional, organism-based
[25] = tested on: Tyrosine-protein kinase ABL1 (Homo sapiens), P00519 [T315I]; test: Inhibition of ABL T315I mutant (unknown origin) 100 nM relative to control
[26] = biological target: T1, Hepatocyte growth factor receptor; test: Inhibition of human c-MET at 100 nM relative to control
[27] = biological target: ALK tyrosine kinase receptor (Homo sapiens) (UniProt Q9UM73); test: Inhibition of ALK (unknown origin) at 10 nM relative to control
CYP2D6 = CYP2D6 (Homo sapiens, UniProt P10635); test: Inhibition of CYP2D6 (unknown origin) at 10 uM relative to control; assay type: ADME
[28] = Metabolic stability in human microsomes assessed as parent compound remaining measured after 30 mins; assay type: ADME, Microsome; settings: read-out: Stability
[29] = biological target: Mast/stem cell growth factor receptor Kit (Homo sapiens) (UniProt P10721); test: Inhibition of C-kit (unknown origin) at 10 nM relative to control
[30] = biological target: Fibroblast growth factor receptor 2 (Homo sapiens) (UniProt P21802); test: Inhibition of FGFR2 (unknown origin) at 100 nM relative to control
[31] = biological target: Platelet-derived growth factor receptor alpha (Homo sapiens) (UniProt P16234); test: Inhibition of PDGFRalpha (unknown origin) at 100 nM relative to control
[32] = biological target: Vascular endothelial growth factor receptor 2 (Homo sapiens) (UniProt P35968); test: Inhibition of human VEGFR2 at 10 nM relative to control
[33] = biological target: Proto-oncogene tyrosine-protein kinase Src (Homo sapiens) (UniProt P12931); test: Inhibition of c-SRC (unknown origin) at 100 nM relative to control
[34] = biological target: T1, Hepatocyte growth factor receptor; test: Inhibition of human c-MET at 10 nM relative to control
[35] = biological target: Macrophage colony-stimulating factor 1 receptor (Homo sapiens) (UniProt P07333); test: Inhibition of CSF1R (unknown origin) at 100 nM relative to control
[36] = biological target: Receptor-type tyrosine-protein kinase FLT3 (Homo sapiens) (UniProt P36888); test: Inhibition of FLT3 (unknown origin) at 100 nM relative to control
[37] = biological target: Fibroblast growth factor receptor 1 (Homo sapiens) (UniProt P11362); test: Inhibition of FGFR1 (unknown origin) at 10 nM relative to control
CYP1A2 = CYP1A2 (Homo sapiens, UniProt P05177); test: Inhibition of CYP1A2 (unknown origin) at 10 uM relative to control; assay type: ADME
[38] = biological target: Insulin-like growth factor 1 receptor (Homo sapiens) (UniProt P08069); test: Inhibition of IGF1R (unknown origin) at 10 nM relative to control

Compound: C[C@@H](Oc1cc(-c2cnn(C3CCNCC3)c2)cnc1N)c1c(Cl)ccc(F)c1Cl [CRIZOTINIB]
pIC50 (MKN-45 [1]): 7.42 to 8.04 | inhibition in vivo at 20 mg/kg (MKN-45 [2]): 29%

Compound: CC(=O)OCCn1cc(-c2cnc3ccc(O[C@H](C)c4c(Cl)ccc(F)c4Cl)cc3n2)cn1
pIC50 (MKN-45 [1]): 6.60

Compound: C[C@@H](Oc1ccc2ncc(-c3cnn(C)c3)nc2c1)c1c(Cl)ccc(F)c1Cl
pIC50 (MKN-45 [1]): 6.13

Compound: C[C@H](Oc1cncc(-c2cnn(C3CCNCC3)c2)c1)c1c(Cl)ccc(F)c1Cl
pIC50 (MKN-45 [1]): 6.10 | pIC50 [3]: 7.04

Compound: C[C@@H](Oc1cncc(-c2cnn(C3CCNCC3)c2)c1)c1c(Cl)ccc(F)c1Cl
inhibition [4]: 43% | pIC50 (MKN-45 [1]): 6.76 | remaining at 0.5 h [5]: 96% | inhibition [6]: 15% | inhibition [7]: -3% | inhibition [8]: 17% | inhibition [9]: 75% | inhibition [10]: -5% | inhibition [11]: 3% | inhibition [12]: 33% | inhibition [13]: 49% | inhibition [14]: -5% | inhibition in vivo at 20 mg/kg (MKN-45 [2]): 48% | inhibition [15]: 2% | inhibition [16]: -1% | inhibition [17]: -9% | remaining at 0.5 h [18]: 85% | inhibition [19]: 4% | inhibition at 10 µM (CYP2C9): 79% | inhibition at 10 µM (CYP3A4): 76% | pIC50 [3]: 8.22 | inhibition [20]: 0% | inhibition [21]: -10% | inhibition [22]: 47% | inhibition at 10 µM (CYP2C19): 63% | inhibition [23]: -10% | TGI (MKN-45 [24]): Dose-dependent effect | inhibition [25]: 63% | inhibition [26]: 100% | inhibition [27]: 31% | inhibition at 10 µM (CYP2D6): 28% | remaining at 0.5 h [28]: 94% | inhibition [29]: 0% | inhibition [30]: 0% | inhibition [31]: -4% | inhibition [32]: -4% | inhibition [33]: -7% | inhibition [34]: 80% | inhibition [35]: 67% | inhibition [36]: 8% | inhibition [37]: -7% | inhibition at 10 µM (CYP1A2): 55% | inhibition [38]: -4%

Compound: CC(=O)N1CCC(n2cc(-c3cnc(F)c(O[C@H](C)c4c(Cl)ccc(F)c4Cl)c3)cn2)CC1
pIC50 (MKN-45 [1]): 7.11

Continued by rising pIC50 (MKN-45 [1]), values first:

pIC50 (MKN-45 [1]): 6.51
Compound: C[C@@H](Oc1cncc(-c2cnn(C3CCN(CC4CC4)CC3)c2)c1)c1c(Cl)ccc(F)c1Cl

pIC50 (MKN-45 [1]): 6.61
Compound: C[C@@H](Oc1cncc(-c2cnn(C3CCN(S(C)(=O)=O)CC3)c2)c1)c1c(Cl)ccc(F)c1Cl

pIC50 (MKN-45 [1]): 6.64
Compound: C[C@@H](Oc1cncc(-c2cnn(C3CCN(C)CC3)c2)c1)c1c(Cl)ccc(F)c1Cl

pIC50 (MKN-45 [1]): 6.71
Compound: C[C@@H](Oc1ccc2ncc(-c3cnn(CCO)c3)nc2c1)c1c(Cl)ccc(F)c1Cl

pIC50 (MKN-45 [1]): 6.88
Compound: CC(C)N1CCC(n2cc(-c3cncc(O[C@H](C)c4c(Cl)ccc(F)c4Cl)c3)cn2)CC1

pIC50 (MKN-45 [1]): 6.93
Compound: CC(=O)N1CCC(n2cc(-c3cncc(O[C@H](C)c4c(Cl)ccc(F)c4Cl)c3)cn2)CC1

pIC50 (MKN-45 [1]): 6.94
Compound: C[C@@H](Oc1cc(-c2cnn(C3CCNCC3)c2)cnc1F)c1c(Cl)ccc(F)c1Cl

pIC50 (MKN-45 [1]): 6.95
Compound: C[C@@H](Oc1cncc(-c2cnn(C3CCN(CC(N)=O)CC3)c2)c1)c1c(Cl)ccc(F)c1Cl
